Consider seven compounds from ChEMBL document CHEMBL1135257, “Bivalent inhibition of beta-tryptase: distance scan of neighboring subunits by dibasic inhibitors” (Bioorg Med Chem Lett, 2002).

In the test the target is Tryptase beta-1 (Homo sapiens, UniProt Q15661). Description: Inhibitory activity against human Tryptase beta was evaluated.
Chain of Tryptase beta-1 (Q15661 whole entry): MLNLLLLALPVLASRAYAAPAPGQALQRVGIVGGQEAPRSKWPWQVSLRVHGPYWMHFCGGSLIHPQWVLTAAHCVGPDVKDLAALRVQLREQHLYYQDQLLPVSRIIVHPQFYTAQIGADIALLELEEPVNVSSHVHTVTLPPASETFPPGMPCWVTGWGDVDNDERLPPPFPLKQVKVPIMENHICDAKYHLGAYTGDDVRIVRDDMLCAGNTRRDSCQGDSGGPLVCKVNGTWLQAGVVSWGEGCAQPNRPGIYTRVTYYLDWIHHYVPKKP

As to `COC(=O)C(Cc1cccc(CN)c1)NC(=O)CCNC(=O)C[C@@H]1NC(=O)[C@@H](CC(=O)NCCC(=O)NC(Cc2cccc(CN)c2)C(=O)OC)NC1=O` (some centres not stated), the affinity, expressed as Ki, was 10 nM. In the case of `COC(=O)C(Cc1cccc(CN)c1)NC(=O)CC[C@@H]1NC(=O)[C@@H](CC(=O)NCC(=O)NC(Cc2cccc(CN)c2)C(=O)OC)NC1=O` (some centres not stated) it was 180 nM; in that of `COC(=O)C(Cc1cccc(CN)c1)NC(=O)CCCNC(=O)C[C@@H]1NC(=O)[C@@H](CC(=O)NCCCC(=O)NC(Cc2cccc(CN)c2)C(=O)OC)NC1=O` (some centres not stated), 350 nM; in that of `COC(=O)C(Cc1cccc(CN)c1)NC(=O)CCC1NC(=O)[C@@H](CCC(=O)NC(Cc2cccc(CN)c2)C(=O)OC)NC1=O` (some centres not stated), 2400 nM. Take `COC(=O)[C@@H](Cc1ccc(CN)cc1)NC(C)=O`: the inhibition constant Ki – broadly, a dissociation constant, usually derived from enzyme kinetics or from competition with a known ligand – was 213000 nM. This Ki is about 89-fold higher than that of the compound before. The compound `COC(=O)C(Cc1cccc(CN)c1)NC(=O)CNC(=O)C[C@@H]1NC(=O)[C@@H](CC(=O)NCC(=O)NC(Cc2cccc(CN)c2)C(=O)OC)NC1=O` (some centres not stated) gave an inhibition constant (Ki) of 18 nM. `COC(=O)[C@@H](Cc1cccc(CN)c1)NC(C)=O` had a Ki of 13700 nM.
